This is an account of results in patent publication US7632814B2, “HYD1 peptides as anti-cancer agents” (University of South Florida, priority 2006, dated 2009).

Holding throughout (assay type): cell-based
For test [1], the system named is 8226 cells. Put plainly: Detection of apoptosis, annexin V staining and FACS, suspension culture. The method, then:
FIG. 17 is a graph showing that HYD1 induces apoptosis as a single agent in 8226 and H929 cells cultured in suspension. 8226 and H929 cells were either treated with varying concentrations of HYD1 or vehicle control (equal volume sterile double distilled water) for 24 hours and apoptotic cells were detected by FACS analysis of annexin V positive cells. HYD1 specific apoptosis equals cell death due to peptide minus any apoptosis detected in control cells.
(§1) Detection of Apoptosis. A flow cytometric assay measuring Annexin V/PI staining was used to measure apoptotic cells following 24 hours of peptide exposure as previously described (Damiano J S et al. Blood, 1999; 93:1658-1667). The assay was performed in triplicate and 3 independent experiments were performed. Caspase 3 and 8 activity was measured at 6 and 24 hrs post peptide treatment per manufactures' instructions (BD Biosciences, San Jose, Calif.). The caspase assays were performed in triplicate and repeated twice.
Myeloma cells were plated at a density of 400,000 cells per ml in a 24 well plate. Cells were treated with the indicated dose of the peptide for 24 hours. Following 24 hrs of peptide exposure, apoptotic cells were detected using Annexin V staining and FACS analysis. Ten thousand events were analyzed by flow cytometry (Becton Dickinson, San Jose, Calif.). Experiments were performed in triplicate and repeated twice. Shown is a representative figure.

For test [2], the system named is caspase 3. Put plainly: Caspase 3 activity in H929 cells (fluorescent substrate). The conditions noted are these: 6 and 24 hrs, relative to treatment with melphalan. The method, then:
Cells were treated for 6 hours (FIG. 21A) or 24 hours (FIG. 21B) and caspase 3 activity was measured using a fluorescent substrate. Shown is a representative experiment performed in triplicate. The experiment was repeated twice and similar results were obtained.
as §1

Test [3] has as its system ERK. Put plainly: Activation of ERK signaling. The method, then:
HYD1, when introduced as a soluble ligand, completely blocks random hapotaxis on laminin 322 and enhanced cellular signals are coupled with the loss of cell motility. […] Using this endpoint as an indicator of HYD1 bioactivity, the truncated and alanine-substituted variants of HYD1 were tested for their ability to activate ERK. Activation of ERK at 10 minutes post-treatment was conserved with alanine-substitution only at the N-terminal lysine and C-terminal glycine (FIG. 16A-1). […] Taken together (FIG. 16C-2), the results (FIGS. 16A-1, 16A-2, 16B, 16C-1) indicate that activation of ERK signaling required ikmviswxx (SEQ ID NO:48).

Test [4] deals with H929 cells. Put plainly: Cell adhesion to HS-5 bone marrow stroma cells (CMFDA fluorescence). The conditions noted are these: varying concentrations, 30 minutes pre-incubation, two hours adhesion. As for the experimental part: (§2) FIGS. 31A and 31B are graphs showing that HYD1 blocks adhesion of 8226 but not H929 cells to the bone marrow stroma cell line HS-5. Varying concentrations of either HYD1, HYD1S or a 1:100 dilution of a β1 integrin functional blocking antibody was added to either (FIG. 31A) CMFDA labeled 8226 cells or (FIG. 31B) CMFDA labeled H929 cells for 30 minutes prior to adding fluorescently labeled cells to either HS-5 or BSA coated wells for two hours. Unadhered cells were gently removed and adherent cells were quantified by total fluorescence. The independent experiments were performed and similar results were obtained.
(§3) Quantification of cell adhesion to HS-5 bone marrow stroma cells. Adhesion of 8226 or H929 cells to the HS-5 bone marrow stromal cells was performed as previously described (Nefedova Y et al. Leukemia, 2003; 17:1175-1182). Briefly, HS-5 cells were plated at a density of 500,000 cell/ml in a 96 well plate overnight. […] Cells were then counted and placed at a density of one million cells per ml and varying concentrations of peptide were added for 30 minutes prior to addition of 100 μl of cells to either HS-5 or BSA coated plates. Cells were allowed to adhere for two hours and unbound cells were washed with three gentle washes and total fluorescence was detected by a Victor plate reader, at 485 nm excitation and 535 nm emission. […]

Test [5] concerns 8226 cells. The description is as above. The conditions noted are these: varying concentrations, 30 minutes pre-incubation, two hours adhesion. As for the experimental part: as §2, §3
Test [6] has as its system H929 cells. Put plainly: HS-5 co-culture (SF+A) model of drug resistance, melphalan apoptosis. As for the experimental part: (§4) Co-culture model. HS-5/GFP cells were plated at a density of 500,000 cells per ml and incubated overnight. Myeloma cells were incubated with vehicle control (water), 50 μg/ml HYD1 or 50 μg/ml HYD1S 30 minutes prior to the addition of myeloma cells (400,000 cell/ml) to either control plates or plates containing HS-5 cells. Myeloma cells were incubated with HS-5 cells for three hours prior to the addition of melphalan. Apoptotic cells were measured in GFP negative myeloma cells, by annexin PE staining and FACS analysis (n=9). ANOVO was performed to determine significance between conditions.
(§5) Briefly, 8226 myeloma cells were pre-incubated with varying concentrations of either HYD1 or the scrambled HYD1S peptide for 30 minutes prior to allowing cells to attach to FN for two hours. Following two hours of cell adhesion, the amount of cells adherent to FN was measured. The next objective was to determine whether treatment of tumor cells with HYD1 results in potentiation of melphalan induced cell death in the BMS co-culture model (SF+A). […] For these studies, the HYD1 and HYD1S were pre-incubated with the […] for 30 minutes, and then cells and culture media containing the peptide were placed into the S-5 culture dish. Myeloma cells were co-cultured for an additional 3 hours with HS-5 cells before the addition of melphalan. Twenty-four hours after drug treatment, apoptosis was measured by Annexin V-PE positive events by FACS analysis. The HS-5 cells constitutively express GFP and thus it is possible to gate GFP negative cells only (myeloma cells) for the apoptotic analysis.

Test [7] concerns 8226 cells. The description is as above. As for the experimental part:
as §4, §5

Where no end group is shown, it is not given here. [ ]: non-standard residue; d: D form.

Regarding “kikmviswkg ([dK][dI][dK][dM][dV][dI][dS][dW][dK]G) [HYD1]”, in test [1] (suspension culture, single agent, 24 hours), the “induction of annexin V positive cells” value was “dose dependent induction of annexin V positive cells”. Also, in test [1] (suspension, peptide with melphalan), the “melphalan-induced apoptosis in cells cultured in suspension” value is reported as “increased melphalan-induced apoptosis”. For the same substance, in test [2], the “caspase 3 activity” value was “minimal caspase 3 activity”. Moreover, the “time of maximal activation of ERK post-treatment” value in test [3] is recorded as 10 min. In addition, the “activation of ERK” value in test [3] (10 minutes post-treatment) is “induces activation of ERK”. Besides, in test [4], the “blocking of H929 cells binding to HS-5 cells” value is listed as “no effect”. Also, the “blocking of 8226 cells binding to HS-5 cells” value in test [5] was “partially blocked”. For the same substance, the “resistance to melphalan associated with HS-5 co-culture” value in test [6] (H929 cells) was “reduced resistance”. Also, the “potentiation of melphalan-induced apoptosis in the SF+A model” value in test [6] (H929 cells co-cultured with HS-5, 50 μg/ml peptide, with melphalan) is listed as “potentiates melphalan-induced apoptosis”; in test [7] (8226 cells co-cultured with HS-5, 50 μg/ml peptide, with melphalan), “potentiates melphalan-induced apoptosis”. Also, the “resistance to melphalan associated with the bone marrow stroma model” value in test [7] (8226 cells) was “completely reversed resistance”.
